The source of these data is BindingDB's records for doi:10.1016/j.bmc.2009.07.047 (4Sc, 2009).

This assay can be described thus: Inhibition of Aurora-B in human HCT116 cells by FACS-based endoreduplication assay.

The compound `COc1cc2c(Oc3ccc(-c4nc5ccccc5s4)cc3)ncnc2cc1OCCCN1CCN(C)CC1` [2-(4-(6-methoxy-7-(3-(4-methylpiperazin-1-yl)propoxy)quinazolin-4-yloxy)phenyl)benzo[d]thiazole] yielded an EC50 above 10 µM.
As for `COc1cc2c(Oc3ccc(-c4nc5ccccc5s4)cc3)ncnc2cc1OCCCN1CCCC1` [2-(4-(6-methoxy-7-(3-(pyrrolidin-1-yl)propoxy)quinazolin-4-yloxy)phenyl)benzo[d]thiazole], the EC50 was above 10 µM.
On to `COc1cc2c(Nc3ccc(-c4nc5ccccc5s4)c(Cl)c3)ncnc2cc1OCCCN1CCN(C)CC1` [N-(4-(benzo[d]thiazol-2-yl)-3-chlorophenyl)-6-methoxy-7-(3-(4-methylpiperazin-1-yl)propoxy)quinazolin-4-amine], for which the 50% effective concentration (EC50) was above 10 µM.
The compound `COc1cc2c(Nc3ccc(-c4nc5ccccc5s4)c(F)c3)ncnc2cc1OCCCN1CCN(C)CC1` [N-(4-(benzo[d]thiazol-2-yl)-3-fluorophenyl)-6-methoxy-7-(3-(4-methylpiperazin-1-yl)propoxy)quinazolin-4-amine] gave an EC50 above 10 µM.
`COc1cc2c(Nc3ccc(-c4nc5cc(Cl)ccc5s4)cc3)ncnc2cc1OCCCN1CCN(C)CC1` [N-[4-(6''-Chlorobenzo[d]thiazol-2''-yl)phenyl]-6'-methoxy-7'-[3-(4-methylpiperazin-1-yl)propoxy]quinazolin-4'-amine] yielded an EC50 above 10 µM.
